Measurements: patent US20250099626A1, “COMPOSITIONS AND METHODS FOR OXONOL DYES WITH NEAR INFRARED FLUORESCENCE” (Washington University, priority 2023, published 2025)

What was measured:
SKBR3-GFP-Luc cells = experiment: Cellular fluorescence intensity imaging (NIR channel) of dye uptake; assay type: cell-based, human; details: 5 μM, 24 h incubation
Method: SKBR3-GFP-Luc cells (Dual labeled stable SK-BR-3 expressing green fluorescent protein (GFP) and luciferase, SL032, GeneCopoeia, Rockville, MD) were cultured in Dulbecco's Modified Eagle Medium (DMEM high glucose, Gibco) supplemented with 10% Fetal Bovine Serum (FBS), 1% penicillin/streptomycin and 5 μg/mL puromycin, and maintained in a humidified incubator at 37° C. with 5% CO2 atmosphere. For imaging experiments, these GFP labeled HER2+ human breast cancer cells were plated in Fluorobrite DMEM media (Gibco) supplemented with 10% FBS and 1% pen/strep in an 8-well chamber slide (6.0×10^4 cells in 200 μL media per well). […] All cells were washed with DPBS (300 μL×2) before mounting (Fluoromount-G, #1 coverslip) and imaging the slides with either a Zeiss AxioImager Z2 fluorescence microscope or FLIM.
Fluorescence intensity imaging was conducted on a Zeiss Axioimager.Z2 microscope equipped with a Hamamatsu ORCA Flash 4.0 V2 camera, X-Cite Xylis LED-based light source, and 20× Zeiss Plan-Apochromat air objective (0.8 N.A.) The imaging parameters included DAPI: excitation 335-383 nm/emission 420-470 nm/exposure time […] GFP: ex 450-490 nm/500-550 nm/46 ms exposure and NIR: ex 715-752 nm/760-855 nm/1 s exposure. […]

Solubility in water = assay type: physicochemical
[1] = Fluorescence lifetime (FLT) by time-correlated single photon counting; assay type: physicochemical
Method: Fluorescence lifetimes (FLT) were measured using time-correlated single photon counting (TCSPC implemented in Fluorolog-3, Horiba Jobin Yvon) with a 700 nm excitation source NanoLed® (impulse repetition rate 1 MHz) at 90° to the PMT R928P detector (Hamamatsu Photonics, Japan). […] We chose DMSO as the solvent for this study because it provides a similar environment to the biological systems. The detector was set to 740 nm with a 20 nm bandpass and data were collected until the peak signal reached 10,000 counts.

[2] = Relative fluorescence quantum yield using ICG as a standard; assay type: physicochemical; details: DMSO
Method: The absorption spectra of 4 and 15 were measured in both methanol (FIG. 4(A-B)) and DMSO (FIG. 5(A-D)). […] The broad emission bands allow flexibility in the choice of excitation and fluorescence wavelengths in analytical and biological assays. The relative fluorescence quantum yields of dyes 4 and 15 measured in DMSO using ICG as a standard show the values of 0.24 and 0.093 respectively compared to 0.12 for ICG.

[3] = Absorption and fluorescence emission spectra of the dyes in solvent; assay type: physicochemical; details: for Emission max, nm: excitation 700 nm
Method: Absorption spectra were recorded on a Beckman Coulter DU 640 UV-visible spectrophotometer (Brea, CA) and fluorescence spectra were recorded on a Fluorolog-3 spectrofluorometer (Horiba Jobin Yvon, Inc., Edison, NJ). All fluorescence measurements were conducted at room temperature and were recorded at excitation of 700 nm and emission scan from 715-900 nm.

[4] = DMSO; reference value of ICG standard; cited from earlier work

| Solubility in water (Solubility in water) | Fluorescent lifetime, ns ([1]; DMSO, 700 nm excitation, detector 740 nm) | Fluorescent lifetime, ns ([1]; Methanol) | Quantum yield (relative fluorescence quantum yield) [2] | Abs max, nm ([3]; DMSO) | Emission max, nm ([3]; DMSO) | Abs max, nm ([3]; Methanol) | Emission max, nm ([3]; Methanol) | Structure (SMILES) | Cellular internalization / uptake judged by signal intensity in NIR channel (SKBR3-GFP-Luc cells) | Fluorescence quantum yield of the standard [4] |
| --- | --- | --- | --- | --- | --- | --- | --- | --- | --- | --- |
| low solubility in water | 0.65 ns | 0.28 ns | 0.24 | 719 nm | 744 nm | 704 nm | 731 nm | O=c1cc2/c(=C/C=C/C=C/c3c4c5c(cc(O)cc5oc3=O)OC(O)=C4)c(=O)oc3cc(O)cc(o1)c32 [Dye 4] | essentially no appreciable uptake | – |
| – | – | – | – | – | – | – | – | CC1(C)C(/C=C/C=C/C=C/C=C2\N(CCCCS(=O)(=O)O)c3ccc4ccccc4c3C2(C)C)=[N+](CCCCS(=O)(=O)[O-])c2ccc3ccccc3c21 [ICG, indocyanine green] | – | 0.12 |
